Experiments:
Format in all cases: biochemical
KRAS G12V = target: T1, KRAS G12V (Homo sapiens, UniProt P01116, G12V); test: HTRF KRAS-SOS1 interaction assay, KRAS G12V; conditions: binned ≤2 μM / >2 μM, read-out: Inhibition of KRAS G12V (IC50)
T1 construct: made in house; host or cells: E. coli, e.g. BL21 (DE3)
Outline: (§1)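 Read-out: HTRF ratio 665/620 nm after ≥10 min incubation of compound with GST-KRAS/anti-GST-Eu and His-hSOS1/anti-6His-XL665. Duplicate dose series, 10 μM down to 0.01 μM. Buffer HEPES pH 7.4, NaCl, DTT, BSA, Igepal.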

KRAS WT = target: T2, KRAS WT (Homo sapiens, UniProt P01116); test: HTRF KRAS-SOS1 interaction assay, wildtype KRAS; conditions: binned ≤2 μM / >2 μM, read-out: Inhibition of KRAS WT (IC50)
T2 construct: made in house; host or cells: E. coli, e.g. BL21 (DE3)
T2 sequence (P01116 1-188 isoform P01116-2): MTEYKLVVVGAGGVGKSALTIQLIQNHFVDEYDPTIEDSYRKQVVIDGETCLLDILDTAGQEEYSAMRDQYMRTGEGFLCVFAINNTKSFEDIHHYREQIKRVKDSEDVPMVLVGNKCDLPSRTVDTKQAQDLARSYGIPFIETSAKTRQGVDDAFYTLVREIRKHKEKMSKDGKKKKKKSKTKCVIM
Outline: as §1

KRAS G12D = target: T3, KRAS G12D (Homo sapiens, UniProt P01116, G12D); test: HTRF KRAS-SOS1 interaction assay, KRAS G12D; conditions: binned ≤2 μM / >2 μM, read-out: Inhibition of KRAS G12D (IC50)
T3 construct: made in house; host or cells: E. coli, e.g. BL21 (DE3)
T3 sequence (P01116 1-188 isoform P01116-2 G12D): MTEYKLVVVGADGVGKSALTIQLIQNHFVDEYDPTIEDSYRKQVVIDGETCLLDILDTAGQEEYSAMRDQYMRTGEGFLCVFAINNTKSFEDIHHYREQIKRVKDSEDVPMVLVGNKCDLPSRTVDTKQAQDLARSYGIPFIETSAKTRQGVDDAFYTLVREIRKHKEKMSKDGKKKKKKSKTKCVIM
Outline: as §1

KRAS G12S = target: T4, KRAS G12S (Homo sapiens, UniProt P01116, G12S); test: HTRF KRAS-SOS1 interaction assay, KRAS G12S; conditions: binned ≤2 μM / >2 μM, read-out: Inhibition of KRAS G12S (IC50)
T4 construct: made in house; host or cells: E. coli, e.g. BL21 (DE3)
T4 sequence (P01116 1-188 isoform P01116-2 G12S): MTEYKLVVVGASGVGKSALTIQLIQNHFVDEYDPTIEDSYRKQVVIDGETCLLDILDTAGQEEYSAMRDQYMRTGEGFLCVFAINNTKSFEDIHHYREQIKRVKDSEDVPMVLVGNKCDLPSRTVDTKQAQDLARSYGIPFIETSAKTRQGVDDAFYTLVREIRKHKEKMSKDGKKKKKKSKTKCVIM
Outline: as §1

T1 sequence (P01116 1-188 isoform P01116-2 G12V): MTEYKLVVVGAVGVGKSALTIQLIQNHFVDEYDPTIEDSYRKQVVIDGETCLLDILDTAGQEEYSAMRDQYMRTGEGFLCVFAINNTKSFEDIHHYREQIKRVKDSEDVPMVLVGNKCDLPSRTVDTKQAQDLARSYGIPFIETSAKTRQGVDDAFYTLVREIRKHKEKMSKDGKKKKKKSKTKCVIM

SMILES | IC50 (KRAS G12V) [µM] | IC50 (KRAS WT) [µM] | IC50 (KRAS G12D) [µM] | IC50 (KRAS G12S) [µM]
CCO/N=C/C1CN2CCC[C@@]2(COc2nc3c4c(c(Cl)c(-c5ccc(F)c6sc(N)c(C#N)c56)c(F)c4n2)OCCN3[C@H](C)c2cccnc2N)C1 (mixture of isomers) [Compound 711, 2-amino-4-(4-((R)-1-(2-aminopyridin-3-yl)ethyl)-8-chloro-2-(((7aS)-2-((E)-(ethoxyimino)methyl)tetrahydro-1H-pyrrolizin-7a(5H)-yl)methoxy)-10-fluoro-5,6-dihydro-4H-[1,4]oxazepino[5,6,7-de]quinazolin-9-yl)-7-fluorobenzo[b]thiophene-3-carbonitrile] | ≤ 2 | ≤ 2 | ≤ 2 | ≤ 2
C[C@H](c1cccnc1N)N1CCOc2c(C(F)(F)F)c(-c3ccc(F)c4sc(N)c(C#N)c34)c(F)c3nc(OC[C@@]45CCCN4C[C@@]4(CC4(F)F)C5)nc1c23 (single isomer, unassigned) [Compound 725] | ≤ 2 | ≤ 2 | ≤ 2 | ≤ 2
C[C@@H]1COCCN1CC1(COc2nc3c4c(c(C(F)(F)F)c(-c5ccc(F)c6sc(N)c(C#N)c56)c(F)c4n2)OCCN3[C@H](C)c2cccnc2N)CC1 (single isomer, unassigned) [Compound 608] | ≤ 2 | ≤ 2 | ≤ 2 | ≤ 2
C[C@H](c1cc(C2CC2)cnc1N)N1CCOc2c(Cl)c(-c3ccc(F)c4sc(N)c(C#N)c34)c(F)c3nc(OC[C@@]45CCCN4C[C@H](F)C5)nc1c23 [Compound 738, 2-amino-4-(4-((R)-1-(2-amino-5-cyclopropylpyridin-3-yl)ethyl)-8-chloro-10-fluoro-2-(((2R,7aS)-2-fluorotetrahydro-1H-pyrrolizin-7a(5H)-yl)methoxy)-5,6-dihydro-4H-[1,4]oxazepino[5,6,7-de]quinazolin-9-yl)-7-fluorobenzo[b]thiophene-3-carbonitrile] | ≤ 2 | ≤ 2 | ≤ 2 | ≤ 2
CN(C)CCC[C@H](c1cccnc1N)N1CCOc2c(C(F)(F)F)c(-c3ccc(F)c4sc(N)c(C#N)c34)c(F)c3nc(OC[C@@]45CCCN4C[C@H](F)C5)nc1c23 (single isomer, unassigned) [Compound 705] | ≤ 2 | ≤ 2 | ≤ 2 | ≤ 2
C=C1CN2CCC[C@@]2(COc2nc3c4c(c(C(F)(F)F)c(-c5ccc(F)c6sc(N)c(C#N)c56)c(F)c4n2)OCCN3[C@H](C)c2cc(F)cnc2N)C1 [Compound 620, 2-amino-4-(4-((R)-1-(2-amino-5-fluoropyridin-3-yl)ethyl)-10-fluoro-2-(((S)-2-methylenetetrahydro-1H-pyrrolizin-7a(5H)-yl)methoxy)-8-(trifluoromethyl)-5,6-dihydro-4H-[1,4]oxazepino[5,6,7-de]quinazolin-9-yl)-7-fluorobenzo[b]thiophene-3-carbonitrile] | ≤ 2 | ≤ 2 | ≤ 2 | ≤ 2
N#Cc1c(N)sc2c(F)ccc(-c3c(C(F)(F)F)c4c5c(nc(OC[C@@]67CCCN6C[C@@]6(CC6(F)F)C7)nc5c3F)N([C@H](CC3CCOCC3)c3cccnc3N)CCO4)c12 [Compound 855, 2-amino-4-(4-((R)-1-(2-aminopyridin-3-yl)-2-(tetrahydro-2H-pyran-4-yl)ethyl)-2-(((1S,7a′S)-2,2-difluorodihydro-1′H,3′H-spiro[cyclopropane-1,2′-pyrrolizin]-7a′(5′H)-yl)methoxy)-10-fluoro-8-(trifluoromethyl)-5,6-dihydro-4H-[1,4]oxazepino[5,6,7-de]quinazolin-9-yl)-7-fluorobenzo[b]thiophene-3-carbonitrile] | ≤ 2 | ≤ 2 | ≤ 2 | ≤ 2
C[C@H](c1cccnc1N)N1CCOc2c(Cl)c(-c3ccc(F)c4sc(N)c(C#N)c34)c(F)c3nc(OC[C@@]45CCCN4CC(=C(F)F)C5)nc1c23 (atropisomer, axis not shown) [Compound 636, 2-amino-4-((R)-4-((R)-1-(2-aminopyridin-3-yl)ethyl)-8-chloro-2-(((S)-2-(difluoromethylene)tetrahydro-1H-pyrrolizin-7a (5H)-yl)methoxy)-10-fluoro-5,6-dihydro-4H-[1,4]oxazepino[5,6,7-de]quinazolin-9-yl)-7-fluorobenzo[b]thiophene-3-carbonitrile] | ≤ 2 | ≤ 2 | ≤ 2 | ≤ 2
C[C@H](c1cccnc1N)N1CCOc2c(Br)c(-c3ccc(F)c4sc(N)c(C#N)c34)c(F)c3nc(OC[C@@]45CCCN4C[C@H](F)C5)nc1c23 (single isomer, unassigned) [Compound 858] | ≤ 2 | ≤ 2 | ≤ 2 | ≤ 2
C[C@H](Oc1nc2c3c(c(Cl)c(-c4ccc(F)c5sc(N)c(C#N)c45)c(F)c3n1)OCCN2[C@H](C)c1cccnc1N)[C@@H]1CCCN1C (mixture of isomers) [Compound 803, 2-amino-4-(4-((R)-1-(2-aminopyridin-3-yl)ethyl)-8-chloro-10-fluoro-2-((S)-1-((S)-1-methylpyrrolidin-2-yl)ethoxy)-5,6-dihydro-4H-[1,4]oxazepino[5,6,7-de]quinazolin-9-yl)-7-fluorobenzo[b]thiophene-3-carbonitrile] | ≤ 2 | ≤ 2 | ≤ 2 | ≤ 2
C[C@H](c1cccnc1N)N1CCOc2c(C(F)(F)F)c(-c3ccc(F)c4sc(N)c(C#N)c34)c(F)c3nc(OCC4(CN5CCC6(CC5)CC6(F)F)CC4)nc1c23 (atropisomer, axis not shown) [Compound 613, 2-amino-4-((S)-4-((R)-1-(2-aminopyridin-3-yl)ethyl)-2-((1-((1,1-difluoro-6-azaspiro[2.5]octan-6-yl)methyl)cyclopropyl)methoxy)-10-fluoro-8-(trifluoromethyl)-5,6-dihydro-4H-[1,4]oxazepino[5,6,7-de]quinazolin-9-yl)-7-fluorobenzo[b]thiophene-3-carbonitrile] | ≤ 2 | ≤ 2 | ≤ 2 | ≤ 2
C=C(F)[C@H](c1cccnc1N)N1CCOc2c(Cl)c(-c3ccc(F)c4sc(N)c(C#N)c34)c(F)c3nc(OC[C@@]45CCCN4C[C@H](F)C5)nc1c23 [Compound 694, 2-amino-4-(4-((S)-1-(2-aminopyridin-3-yl)-2-fluoroallyl)-8-chloro-10-fluoro-2-(((2R,7aS)-2-fluorotetrahydro-1H-pyrrolizin-7a(5H)-yl)methoxy)-5,6-dihydro-4H-[1,4]oxazepino[5,6,7-de]quinazolin-9-yl)-7-fluorobenzo[b]thiophene-3-carbonitrile] | ≤ 2 | ≤ 2 | ≤ 2 | ≤ 2
N#Cc1c(N)sc2c(F)ccc(-c3c(C(F)(F)F)c4c5c(nc(OC[C@@]67CCCN6CC(=C(F)F)C7)nc5c3F)N([C@H](CC3CCOCC3)c3cccnc3N)CCO4)c12 [Compound 781, 2-amino-4-(4-((R)-1-(2-aminopyridin-3-yl)-2-(tetrahydro-2H-pyran-4-yl)ethyl)-2-(((S)-2-(difluoromethylene)tetrahydro-1H-pyrrolizin-7a(5H)-yl)methoxy)-10-fluoro-8-(trifluoromethyl)-5,6-dihydro-4H-[1,4]oxazepino[5,6,7-de]quinazolin-9-yl)-7-fluorobenzo[b]thiophene-3-carbonitrile] | ≤ 2 | ≤ 2 | ≤ 2 | ≤ 2
C[C@H](c1nccnc1N)N1CCOc2c(C(F)(F)F)c(-c3ccc(F)c4sc(N)c(C#N)c34)c(F)c3nc(OC[C@@]45CCCN4C[C@H](F)C5)nc1c23 (single isomer, unassigned) [Compound 797] | > 2 | > 2 | > 2 | > 2
N#Cc1c(N)sc2c(F)ccc(-c3c(C(F)(F)F)c4c5c(nc(OCC6(CN7CCC8(CC7)CC8(F)F)CC6)nc5c3F)N([C@H](CCC(F)(F)F)c3cccnc3N)CCO4)c12 [Compound 637, 2-amino-4-(4-((R)-1-(2-aminopyridin-3-yl)-4,4,4-trifluorobutyl)-2-((1-((1,1-difluoro-6-azaspiro[2.5]octan-6-yl)methyl)cyclopropyl)methoxy)-10-fluoro-8-(trifluoromethyl)-5,6-dihydro-4H-[1,4]oxazepino[5,6,7-de]quinazolin-9-yl)-7-fluorobenzo[b]thiophene-3-carbonitrile] | ≤ 2 | ≤ 2 | ≤ 2 | ≤ 2
N#Cc1c(N)sc2c(F)ccc(-c3c(C(F)(F)F)c4c5c(nc(OC[C@@]67CCCN6C[C@H](F)C7)nc5c3F)N([C@H](CCC3CC3)c3cccnc3N)CCO4)c12 (single isomer, unassigned) [Compound 606] | > 2 | > 2 | > 2 | > 2
C[C@H](c1cccnc1N)N1CCOc2c(Cl)c(-c3ccc(F)c4sc(N)c(C#N)c34)c(F)c3nc(OC[C@@H]4CC(F)(F)CN4C)nc1c23 (single isomer, unassigned) [Compound 741] | ≤ 2 | ≤ 2 | ≤ 2 | ≤ 2

Source: patent publication US12668600B2 (Kumquat Biosciences Inc., priority 2023, dated 2026)
